Target: recombinant Plk1 (Homo sapiens, UniProt P53350)
Test: In Vitro Plk1 Enzyme Assay (SPA, GST-Cdc25C phosphorylation)
Type: biochemical
Conditions: ATP 64 nM, 90 minutes, read-out: IC50 (Plk1 enzyme inhibition)
Procedure: Reactions were stopped by addition of EDTA (110 mM) and the Cdc25C substrate captured via its GST tag to anti-GST antibody (Molecular Probes, Cat No A-5800) coated Protein A PVT SPA beads (Amersham Biosciences, Catalogue No. RPQ0019; 250 μg/well) in 50 mM HEPES pH7.5 buffer containing 0.05% (w/v) sodium azide and incubated for up to 2 hours, followed by the addition of 20 μl of 4M caesium chloride (final assay concentration of 1M). Plates were then left in the dark overnight before counting on a Packard TopCount NXT.
Radiolabelled phosphorylated substrate is formed in situ as a result of Plk1 mediated phosphorylation. The SPA beads contain a scintillant that can be stimulated to emit light. This stimulation only occurs when a radiolabelled phosphorylated substrate is bound to the surface of the coated SPA bead causing the emission of blue light that can be measured on a scintillation counter. Accordingly, the extent of Plk1 mediated Cdc25C phosphorylation was assessed. The raw assay data were then analysed by non-linear regression analysis and Plk1 enzyme inhibition for a given test compound is expressed as an IC50 value.

recombinant Plk1, sequence (P53350 whole entry): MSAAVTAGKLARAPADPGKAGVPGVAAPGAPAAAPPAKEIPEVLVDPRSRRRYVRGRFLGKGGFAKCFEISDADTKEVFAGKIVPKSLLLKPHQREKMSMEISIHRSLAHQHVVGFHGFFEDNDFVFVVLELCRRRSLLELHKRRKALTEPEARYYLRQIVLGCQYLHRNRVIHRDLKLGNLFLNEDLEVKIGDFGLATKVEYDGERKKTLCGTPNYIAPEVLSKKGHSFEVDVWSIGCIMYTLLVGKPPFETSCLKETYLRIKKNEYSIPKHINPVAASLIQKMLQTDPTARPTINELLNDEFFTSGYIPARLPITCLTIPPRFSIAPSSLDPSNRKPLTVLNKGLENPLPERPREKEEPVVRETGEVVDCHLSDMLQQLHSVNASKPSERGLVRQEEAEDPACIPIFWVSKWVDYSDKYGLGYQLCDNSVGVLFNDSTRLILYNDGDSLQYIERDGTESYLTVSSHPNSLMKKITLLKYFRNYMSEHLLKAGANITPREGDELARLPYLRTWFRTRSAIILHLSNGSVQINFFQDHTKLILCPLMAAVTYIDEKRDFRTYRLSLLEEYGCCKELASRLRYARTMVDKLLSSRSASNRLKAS

With “6-cyclopentyl-2-methyl-9-[(2,3,4-trimethoxyphenyl)amino]-2,6,8,10-tetrazabicyclo[5.4.0]undeca-8,10,12-trien-3-one [Example 130]” as the molecule, how does the IC50 read?
Its IC50 is under 1 µM.

“6-cyclopentyl-2-methyl-9-[(2,4,6-trimethoxyphenyl)amino]-2,6,8,10-tetrazabicyclo[5.4.0]undeca-8,10,12-trien-3-one [Example 112]” was tested. Which IC50 did it give?
Its IC50 is under 1 µM.

How did the IC50 turn out when “6-cyclopentyl-9-[[5-(3-dimethylaminopyrrolidin-1-yl)-2-methoxy-phenyl]amino]-2-methyl-2,6,8,10-tetrazabicyclo[5.4.0]undeca-8,10,12-trien-3-one [Example 182]” was run?
Its IC50 is under 1 µM.

With `CCCC1CN(C2CCCC2)c2nc(Nc3ccc(C(=O)NC4CCN(C)CC4)cc3OC)ncc2N(C)C1=O` (single isomer, unassigned) [Example 239] as the molecule, how does the IC50 read?
Its IC50 is under 100 µM.

How did the IC50 turn out when `COc1cc(C(=O)NC2CCN(C)CC2)ccc1Nc1ncc2c(n1)N(C1CCOCC1)CCC(=O)N2C` [Example 9, 3-Methoxy-4-[[6-methyl-2-(oxan-4-yl)-5-oxo-2,6,9,11-tetrazabicyclo[5.4.0]undeca-7,9,11-trien-10-yl]amino]-N-(1-methyl-4-piperidyl)benzamide] was run?
The IC50 was under 0.3 µM.

For `COc1cc(C(=O)NCCN2CCCCC2)ccc1Nc1ncc2c(n1)N(C1CCCC1)CCC(=O)N2C` [Example 12, 4-[(6-cyclopentyl-2-methyl-3-oxo-2,6,8,10-tetrazabicyclo[5.4.0]undeca-8,10,12-trien-9-yl)amino]-3-methoxy-N-[2-(1-piperidyl)ethyl]benzamide], which IC50 is on record?
Its IC50 is under 1 µM.

`COC(=O)[C@H]1CC[C@@H](NC(=O)c2ccc(Nc3ncc4c(n3)N(C3CCCC3)CCC(=O)N4C)c(OC)c2)C1` [Example 65, Methyl(1S,3R)-3-[[4-[(6-cyclopentyl-2-methyl-3-oxo-2,6,8,10-tetrazabicyclo[5.4.0]undeca-8,10,12-trien-9-yl)amino]-3-methoxy-benzoyl]amino]cyclopentane-1-carboxylate] was tested. Which IC50 did it give?
Its IC50 is under 1 µM.

How did the IC50 turn out when `COc1cc(C(=O)N[C@@H]2CC[C@H](C(=O)O)C2)ccc1Nc1ncc2c(n1)N(C1CCCC1)CCC(=O)N2C` [Example 87, (1S,3R)-3-[[4-[(6-cyclopentyl-2-methyl-3-oxo-2,6,8,10-tetrazabicyclo[5.4.0]undeca-8,10,12-trien-9-yl)amino]-3-methoxy-benzoyl]amino]cyclopentane-1-carboxylic acid] was run?
Its IC50 is under 0.3 µM.

With `CC(C)NC(=O)c1ccc(Nc2ncc3c(n2)N(C2CCCC2)CCC(=O)N3C)cc1` [Example 100, 4-[(6-cyclopentyl-2-methyl-3-oxo-2,6,8,10-tetrazabicyclo[5.4.0]undeca-8,10,12-trien-9-yl)amino]-N-propan-2-yl-benzamide] as the molecule, how does the IC50 read?
The IC50 was under 0.3 µM.

System: human colon tumour cell line HT29
Test: Cellular Assay (phosphohistone H3 Ser10 mitotic marker, HT29)
Type: cell-based
Conditions: HT-29, 24 h, HT29 cells, read-out: IC50 (cellular assay, phosphohistone H3)
Procedure: Chromosome condensation in mitosis is accompanied by phosphorylation of histone H3 on serine 10.
After 24 hours, cells were fixed in 3.7% (v/v) formaldehyde then permeabilised and blocked for 10 minutes in 100 μl 0.5% (v/v) Triton X-100, 1% (w/v) bovine serum albumin (BSA) in phosphate buffered saline (PBS). […] The raw assay data were analysed by non-linear regression analysis and used to determine an IC50 value for each compound.

For `CCN1CCC(NC(=O)c2cc(OC)c(Nc3ncc4c(n3)N(C3CCCCC3)CCC(=O)N4C)cc2F)CC1` [Example 422, 4-[(2-cyclohexyl-6-methyl-5-oxo-2,6,9,11-tetrazabicyclo[5.4.0]undeca-7,9,11-trien-10-yl)amino]-N-(1-ethyl-4-piperidyl)-2-fluoro-5-methoxy-benzamide], which IC50 is on record?
Its IC50 is under 0.3 µM.

`CCN1CCC(NC(=O)c2ccc(Nc3ncc4c(n3)N(C3CCCCC3)CCC(=O)N4C)c(OC)c2)CC1` [Example 423, 4-[(2-cyclohexyl-6-methyl-5-oxo-2,6,9,11-tetrazabicyclo[5.4.0]undeca-7,9,11-trien-10-yl)amino]-N-(1-ethyl-4-piperidyl)-3-methoxy-benzamide] was tested. Which IC50 did it give?
The IC50 was under 0.3 µM.

`COc1cc(C(=O)NCCCN(C)C)ccc1Nc1ncc2c(n1)N(C1CCCCC1)CCC(=O)N2C` [Example 424, 4-[(2-cyclohexyl-6-methyl-5-oxo-2,6,9,11-tetrazabicyclo[5.4.0]undeca-7,9,11-trien-10-yl)amino]-N-(3-dimethylaminopropyl)-3-methoxy-benzamide] was tested. Which IC50 did it give?
The IC50 was under 0.3 µM.

Which IC50 does the source give for `COc1cc(C(=O)NCCN2CCCC2)c(F)cc1Nc1ncc2c(n1)N(C1CCCCC1)CCC(=O)N2C` [Example 425, 4-[(2-cyclohexyl-6-methyl-5-oxo-2,6,9,11-tetrazabicyclo[5.4.0]undeca-7,9,11-trien-10-yl)amino]-2-fluoro-5-methoxy-N-(2-pyrrolidin-1-ylethyl)benzamide] here?
Its IC50 is under 0.3 µM.

For `COc1cc(C(=O)NCCN(C)C)ccc1Nc1ncc2c(n1)N(C1CCCCC1)CCC(=O)N2C` [Example 426, 4-[(2-cyclohexyl-6-methyl-5-oxo-2,6,9,11-tetrazabicyclo[5.4.0]undeca-7,9,11-trien-10-yl)amino]-N-(2-dimethylaminoethyl)-3-methoxy-benzamide], which IC50 is on record?
Its IC50 is under 0.3 µM.

With `COc1cc(C(=O)NC2C[C@H]3CCC[C@@H](C2)N3C)c(F)cc1Nc1ncc2c(n1)N(C1CCCCC1)CCC(=O)N2C` (stereo partly drawn) [Example 427, 4-[(2-cyclohexyl-6-methyl-5-oxo-2,6,9,11-tetrazabicyclo[5.4.0]undeca-7,9,11-trien-10-yl)amino]-2-fluoro-5-methoxy-N-[(1R,5S)-9-methyl-9-azabicyclo[3.3.1]non-7-yl]benzamide] as the molecule, how does the IC50 read?
The IC50 was under 0.3 µM.

How did the IC50 turn out when `CN1C(=O)C2(CC2)CN(C2CCCCC2)c2nc(Nc3ccc(C(=O)NC4C[C@H]5CCC[C@@H](C4)N5C)cc3F)ncc21` (stereo partly drawn) [Example 435, 4-(9′-cyclohexyl-5′-methyl-6′-oxo-5′,6′,8′,9′-tetrahydrospiro[cyclopropane-1,7′-pyrimido[5,4-b][1,4]diazepine]-2′-ylamino)-3-fluoro-N-[(1S,5R)-9-methyl-9-azabicyclo[3.3.1]non-7-yl]benzamide] was run?
The IC50 was under 0.3 µM.

How did the IC50 turn out when `CN1CCC(NC(=O)c2cc(F)c(Nc3ncc4c(n3)N(C3CCCCC3)CC3(CC3)C(=O)N4C)cc2F)CC1` [Example 436, 4-(9′-cyclohexyl-5′-methyl-6′-oxo-5′,6′,8′,9′-tetrahydrospiro[cyclopropane-1,7′-pyrimido[5,4-b][1,4]diazepine]-2′-ylamino)-2,5-difluoro-N-(1-methyl-4-piperidyl)benzamide] was run?
Its IC50 is under 0.3 µM.

How did the IC50 turn out when `CN1C(=O)C2(CC2)CN(C2CCCCC2)c2nc(Nc3cc(F)c(C(=O)NC4CCC(N(C)C)CC4)cc3Cl)ncc21` (stereo not drawn) [Example 437, 5-chloro-4-(9′-cyclohexyl-5′-methyl-6′-oxo-5′,6′,8′,9′-tetrahydrospiro[cyclopropane-1,7′-pyrimido[5,4-b][1,4]diazepine]-2′-ylamino)-N-(4-dimethylaminocyclohexyl)-2-fluoro-benzamide] was run?
Its IC50 is under 0.3 µM.

Which IC50 does the source give for `COc1cc(C(=O)N[C@@H]2CCN(C)C2)c(F)cc1Nc1ncc2c(n1)N(C1CCCCC1)CC1(CC1)C(=O)N2C` [Example 438, 4-(9′-cyclohexyl-5′-methyl-6′-oxo-5′,6′,8′,9′-tetrahydrospiro[cyclopropane-1,7′-pyrimido[5,4-b][1,4]diazepine]-2′-ylamino)-2-fluoro-5-methoxy-N-[(3R)-1-methylpyrrolidin-3-yl]benzamide] here?
Its IC50 is under 0.3 µM.

`COc1cc(C(=O)NCC(C)(C)CN2CCCC2)ccc1Nc1ncc2c(n1)N(C1CCCCC1)CC1(CC1)C(=O)N2C` [Example 440, 4-(9′-cyclohexyl-5′-methyl-6′-oxo-5′,6′,8′,9′-tetrahydrospiro[cyclopropane-1,7′-pyrimido[5,4-b][1,4]diazepine]-2′-ylamino)-N-(2,2-dimethyl-3-pyrrolidin-1-yl-propyl)-3-methoxy-benzamide] was tested. Which IC50 did it give?
The IC50 was under 0.3 µM.

`CCN1CC[C@@H](NC(=O)c2ccc(Nc3ncc4c(n3)N(C3CCCCC3)CC3(CC3)C(=O)N4C)c(OC)c2)C1` [Example 441, 4-(9′-cyclohexyl-5′-methyl-6′-oxo-5′,6′,8′,9′-tetrahydrospiro[cyclopropane-1,7′-pyrimido[5,4-b][1,4]diazepine]-2′-ylamino)-N-[(3R)-1-ethylpyrrolidin-3-yl]-3-methoxy-benzamide] was tested. Which IC50 did it give?
The IC50 was under 0.3 µM.

Which IC50 does the source give for `COc1cc(C(=O)NC2C[C@H]3CCC[C@@H](C2)N3C)c(F)cc1Nc1ncc2c(n1)N(C1CCCCC1)CC1(CC1)C(=O)N2C` (stereo partly drawn) [Example 442, 4-(9′-cyclohexyl-5′-methyl-6′-oxo-5′,6′,8′,9′-tetrahydrospiro[cyclopropane-1,7′-pyrimido[5,4-b][1,4]diazepine]-2′-ylamino)-2-fluoro-5-methoxy-N-[(1S,5R)-9-methyl-9-azabicyclo[3.3.1]non-3-yl]benzamide] here?
The IC50 was under 0.3 µM.

For `CCN1CCC(NC(=O)c2cc(OC)c(Nc3ncc4c(n3)N(C3CCCCC3)CC3(CC3)C(=O)N4C)cc2F)CC1` [Example 443, 4-(9′-cyclohexyl-5′-methyl-6′-oxo-5′,6′,8′,9′-tetrahydrospiro[cyclopropane-1,7′-pyrimido[5,4-b][1,4]diazepine]-2′-ylamino)-N-(1-ethyl-4-piperidyl)-2-fluoro-5-methoxy-benzamide], which IC50 is on record?
The IC50 was under 0.3 µM.

Which IC50 does the source give for `COc1cc(C(=O)NCCN2CCCC2)c(F)cc1Nc1ncc2c(n1)N(C1CCCCC1)CC1(CC1)C(=O)N2C` [Example 444, 4-(9′-cyclohexyl-5′-methyl-6′-oxo-5′,6′,8′,9′-tetrahydrospiro[cyclopropane-1,7′-pyrimido[5,4-b][1,4]diazepine]-2′-ylamino)-2-fluoro-5-methoxy-N-(2-pyrrolidin-1-ylethyl)benzamide] here?
Its IC50 is under 0.3 µM.

With `COc1cc(C(=O)NCC2(CN3CCCC3)CC2)c(F)cc1Nc1ncc2c(n1)N(C1CCCCC1)CC1(CC1)C(=O)N2C` [Example 445, 4-(9′-cyclohexyl-5′-methyl-6′-oxo-5′,6′,8′,9′-tetrahydrospiro[cyclopropane-1,7′-pyrimido[5,4-b][1,4]diazepine]-2′-ylamino)-2-fluoro-5-methoxy-N-[[1-(pyrrolidin-1-ylmethyl)cyclopropyl]methyl]benzamide] as the molecule, how does the IC50 read?
The IC50 was under 0.3 µM.

How did the IC50 turn out when `CN1CCC(NC(=O)c2ccc(Nc3ncc4c(n3)N(C3CCCCC3)CC3(CC3)C(=O)N4C)c(F)c2)CC1` [Example 446, 4-(9′-cyclohexyl-5′-methyl-6′-oxo-5′,6′,8′,9′-tetrahydrospiro[cyclopropane-1,7′-pyrimido[5,4-b][1,4]diazepine]-2′-ylamino)-3-fluoro-N-(1-methyl-4-piperidyl)benzamide] was run?
The IC50 was under 0.3 µM.

Which IC50 does the source give for `COc1cc(C(=O)NC2CCCCN(C)C2)ccc1Nc1ncc2c(n1)N(C1CCCC1)CCC(=O)N2C` (stereo not drawn) [Example 453, 4-[(2-cyclopentyl-6-methyl-5-oxo-2,6,9,11-tetrazabicyclo[5.4.0]undeca-7,9,11-trien-10-yl)amino]-3-methoxy-N-(1-methylazepan-3-yl)benzamide] here?
The IC50 was under 0.3 µM.
